Measured values: patent US11597708B2, “Inhibitors of heat shock factors and uses thereof” (HSF Pharmaceuticals SA, priority 2016, dated 2023)
Read-outs that look alike come from different tables or passages of the source.

Columns and labels:
HSF1 oligomerization = target: T1, HSF1 oligomerization (Homo sapiens, UniProt Q00613); assay: EGS cross-linking and anti-HSF1 western blot (HSF1 oligomerization); format: cell-based; conditions: extracts of exposed, heat-treated HeLa cells
T1 construct: functionally linked to an hsp70b promoter and therefore controlled by endogenous HSF1; endogenous in cells; host or cells: HeLa cells / HeLa-derived cell line Z74
Description: FIG. 3. (A) HeLa cell cultures were mock-treated (−) or exposed for 2 hours to the indicated concentrations of compounds 058 or 115 and then heat-treated (HS) at 43° C. for 30 min. Top panels: HSF1 DNA-binding activities in cell extracts were determined by EMSA. The panels show the major HSF1-HSE DNA probe complexes. Middle panels: HSF1 levels assayed by western blot (WB). GAPDH served as a loading control. Bottom panels: HSF1 homooligomerization. Aliquots of extracts were EGS-treated and then analyzed by anti-HSF1 WB. The positions of pre-stained molecular weight marker proteins (MW, in thousands) are indicated to the right. Asterisks indicate the positions of monomeric and trimeric HSF1, respectively. (B) Relative occupancy of the hspa1a promoter was assessed by chromatin immunoprecipitation assay of HeLa cell cultures mock-treated (−) or treated with compounds 058 or 115 at 12.5 μM concentrations for 2 hours and then heat-treated (HS) at 43° C. for 30 min. Chromatin fragments were immunoprecipitated using HSF1 antibodies or an F4/80 LR (control) antibody, and associated hspa1a promoter DNA was quantified by real-time PCR.
We also investigated whether the compounds were capable of interfering with HSF1 oligomerization. Aliquots of the extracts were subjected to cross-linking with EGS (ethylene glycolbis(succinimidylsuccinate)) and then re-analyzed by anti-HSF1 WB. […]

HSF1 = target: T2, HSF1 (Homo sapiens, UniProt Q00613); assay: Z74 cell-based reporter assay: heat-induced RLuc expression controlled by endogenous HSF1; conditions: for IC50: inhibition of HSF1 activity [RLuc]; for inhibition at 12.5 µM: 12.5 μM IHSF, negative values marked *: compound enhanced rLuc activity, read-out: Inhibition of HSF1 activity at 12.5 μM IHSF [RLuc] (%)
T2 construct: functionally linked to an hsp70b promoter and therefore controlled by endogenous HSF1; endogenous in cells; host or cells: HeLa cells / HeLa-derived cell line Z74
T2 sequence (Q00613 1-529): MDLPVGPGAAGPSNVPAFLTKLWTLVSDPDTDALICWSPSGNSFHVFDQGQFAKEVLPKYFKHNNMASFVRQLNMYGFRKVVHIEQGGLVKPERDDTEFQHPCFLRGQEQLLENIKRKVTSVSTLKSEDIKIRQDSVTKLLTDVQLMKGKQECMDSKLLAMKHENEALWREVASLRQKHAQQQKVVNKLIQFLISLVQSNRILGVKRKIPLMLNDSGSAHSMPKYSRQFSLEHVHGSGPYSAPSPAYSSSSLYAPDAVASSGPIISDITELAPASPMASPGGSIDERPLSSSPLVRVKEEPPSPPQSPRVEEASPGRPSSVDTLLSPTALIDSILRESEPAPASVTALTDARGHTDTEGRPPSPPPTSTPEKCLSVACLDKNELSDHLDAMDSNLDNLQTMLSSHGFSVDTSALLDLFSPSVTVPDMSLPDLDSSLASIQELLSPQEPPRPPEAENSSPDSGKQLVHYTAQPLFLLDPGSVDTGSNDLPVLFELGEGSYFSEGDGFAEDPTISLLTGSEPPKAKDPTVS
In short: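 HeLa-derived Z74 cells carry LexA-HSF1-driven firefly luciferase and hsp70b promoter-driven Renilla luciferase, the latter under endogenous HSF1. Cells were treated with compound at 12.5 or 25 μM for 2 h, heated to 43.0 °C for 30 min, then kept 6 h at 37 °C. Both luciferases were read by dual-luciferase luminescence.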

[1] = Aqueous solubility (statement); format: physicochemical
[2] = Z74 cells, 25 μM IHSF, 2 h exposure, 43° C. 30 min, 6 h at 37° C., read-out: Inhibition of HSF1 activity at 25 μM IHSF [RLuc] (%)

Row | Structure (SMILES) | HSF1 oligomerization (EGS cross-linking, anti-HSF1 WB) (HSF1 oligomerization) | IC50 (HSF1; Z74 cells) | inhibition at 12.5 µM (HSF1; Z74 cells) | inhibition at 25 µM (HSF1; [2]) | activity in the Z74-based screening assay (HSF1; most potent IHSF) | aqueous solubility [1] | inhibition at 25 µM (HSF1; IHSF 001 tested at 25 μM, Experiment No. 1, read-out: Inhibition of HSF1 activity [RLuc] (%)) | inhibition at 25 µM (HSF1; IHSF 001 tested at 25 μM, Experiment No. 2, read-out: Inhibition of HSF1 activity [RLuc] (%)) | inhibition at 25 µM (HSF1; IHSF 001 tested at 25 μM, Experiment No. 3, read-out: Inhibition of HSF1 activity [RLuc] (%)) | inhibition at 25 µM (HSF1; IHSF 001 tested at 25 μM, Experiment No. 4, read-out: Inhibition of HSF1 activity [RLuc] (%)) | inhibition at 25 µM (HSF1; IHSF 001 tested at 25 μM, Experiment No. 5, read-out: Inhibition of HSF1 activity [RLuc] (%)) | inhibition at 25 µM (HSF1; IHSF 001 tested at 25 μM, Experiment No. 6, read-out: Inhibition of HSF1 activity [RLuc] (%)) | inhibition at 25 µM (HSF1; IHSF 001 tested at 25 μM, Experiment No. 7, read-out: Inhibition of HSF1 activity [RLuc] (%)) | inhibition at 25 µM (HSF1; IHSF 001 tested at 25 μM, Experiment No. 8, read-out: Inhibition of HSF1 activity [RLuc] (%)) | inhibition at 25 µM (HSF1; IHSF 001 tested at 25 μM, Experiment No. 9, read-out: Inhibition of HSF1 activity [RLuc] (%))
1 | CN(C(=O)/C=C/C1=NCCCO1)c1ncc(-c2cccnc2)s1 [IHSF 115, (E)-3-(5,6-Dihydro-4H-[1,3]oxazin-2-yl)-N-methyl-N-(5-pyridin-3-yl-thiazol-2-yl)-acrylamide] | No impairment of oligomerization | 0.7 µM | 99% | 100% | substantial activity in the high nanomolar range | limited | – | – | – | – | – | – | – | – | –
2 | CCOC(=O)/C=C/C(=O)Nc1nccs1 [IHSF 001, (E)-ethyl 4-oxo-4-(thiazol-2-ylamino)but-2-enoate] | – | 17.8 µM | 37% | 64% | – | – | 66% | 69% | 69% | 67% | 68% | 63% | 56% | 51% | 45%
3 | CCOC(=O)/C=C/C(=O)Nc1ncc(-c2cccnc2)s1 [IHSF 058, (E)-3-(5-Pyridm-3-yl-thiazol-2-ylcarbamoyl)-acrylic acid ethyl ester] | No impairment of oligomerization | 4.8 µM | 79% | 97% | – | limited | – | – | – | – | – | – | – | – | –
